{"source": "paper PMC8554850", "about": "“Allergens of the urushiol family promote mitochondrial dysfunction by inhibiting the electron transport at the level of cytochromes b and chemically modify cytochrome c1” (Biological Research, 2021)", "key": {"[1]": {"target": "T1, complex III (cytochrome bc1) (Rattus norvegicus, UniProt P00159)", "T1 construct": "gene Mt-cyb; native complex III in liver mitochondria / submitochondrial particles; with Cytochrome c1, heme protein, mitochondrial; Cytochrome b-c1 complex subunit Rieske, mitochondrial", "T1 sequence (P00159 whole entry)": "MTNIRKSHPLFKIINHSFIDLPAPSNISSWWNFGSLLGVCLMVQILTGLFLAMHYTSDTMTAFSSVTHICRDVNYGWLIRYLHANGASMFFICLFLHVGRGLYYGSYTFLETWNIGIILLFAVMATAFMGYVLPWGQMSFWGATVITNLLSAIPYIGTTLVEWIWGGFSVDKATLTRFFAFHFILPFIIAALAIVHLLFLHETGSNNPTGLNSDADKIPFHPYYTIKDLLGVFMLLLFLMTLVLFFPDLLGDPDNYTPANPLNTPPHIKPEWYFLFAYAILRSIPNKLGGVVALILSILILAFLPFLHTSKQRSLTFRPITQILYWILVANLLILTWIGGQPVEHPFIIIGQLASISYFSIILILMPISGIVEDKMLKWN", "T1 sequence (D3ZFQ8 87-326 partner)": "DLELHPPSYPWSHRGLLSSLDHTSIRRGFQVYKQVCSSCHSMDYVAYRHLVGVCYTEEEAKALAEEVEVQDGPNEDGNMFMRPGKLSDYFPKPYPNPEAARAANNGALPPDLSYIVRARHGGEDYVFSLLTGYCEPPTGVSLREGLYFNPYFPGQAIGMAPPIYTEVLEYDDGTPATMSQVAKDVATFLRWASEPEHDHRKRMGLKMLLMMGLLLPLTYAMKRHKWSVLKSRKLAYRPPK", "T1 sequence (P20788 79-274 partner)": "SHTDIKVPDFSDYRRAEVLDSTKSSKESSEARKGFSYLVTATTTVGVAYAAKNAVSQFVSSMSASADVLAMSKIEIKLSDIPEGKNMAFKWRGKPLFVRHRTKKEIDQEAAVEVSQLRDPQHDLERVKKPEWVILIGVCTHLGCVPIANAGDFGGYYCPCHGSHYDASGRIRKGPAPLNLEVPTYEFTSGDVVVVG", "assay": "duroquinol:cytochrome c reduction, Hanes-Woolf; cytochrome b redox spectrophotometry", "format": "biochemical"}, "cytochrome c1": {"target": "T2, cytochrome c1 (Bos taurus, UniProt P00125)", "T2 construct": "gene CYC1; native, in isolated heart mitochondria (complex III, inner membrane); about 27 kD on SDS-PAGE; printed peptides SDLELHPPSYPWSHR (1-15) and WAAEPEHDHRK (192-202)", "T2 sequence (P00125 85-325)": "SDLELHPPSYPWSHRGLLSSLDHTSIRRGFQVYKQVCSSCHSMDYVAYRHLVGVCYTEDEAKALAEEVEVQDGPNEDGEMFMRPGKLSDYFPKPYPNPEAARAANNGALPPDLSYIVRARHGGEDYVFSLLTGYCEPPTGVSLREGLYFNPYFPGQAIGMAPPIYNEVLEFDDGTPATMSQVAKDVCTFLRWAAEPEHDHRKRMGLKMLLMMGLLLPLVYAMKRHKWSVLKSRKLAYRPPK", "assay": "tritium labelling of mitochondria, 1D and 2D-PAGE photofluorography, western blot, tryptic mass fingerprint", "format": "binding", "settings": "covalent; labelled compound; 5 µM, 30 min, 25 °C, then chased with 1 mM cold litreol; Lys202 and N-terminal peptide proposed"}}, "data": [{"smiles": "Cc1c(C)c(O)c(C)c(C)c1O", "note": "[duroquinol]", "values": [{"measurement": "duroquinol:cytochrome c reduction, Hanes-Woolf; cytochrome b redox spectrophotom", "setting": "[1]; electron donor, acceptor cytochrome c", "value": "The enzyme kinetics of complex III for Dur and cytochrome c were measured"}]}, {"smiles": "CCCCCCCCCCCCCCCc1cccc(O)c1O", "note": "[3H-litreol]", "values": [{"measurement": "tritium labelling of mitochondria, 1D and 2D-PAGE photofluorography, western blo", "setting": "cytochrome c1", "value": "Litreol binds to an inner mitochondrial membrane protein from bovine heart mitochondria"}]}, {"smiles": "CCCC/C=C\\CCCCCCCCCc1cccc(O)c1O", "note": "[litreol, 3-(10-Z-pentadecenyl)-catechol]", "values": [{"measurement": "duroquinol:cytochrome c reduction, Hanes-Woolf; cytochrome b redox spectrophotom", "setting": "[1]; noncompetitive vs duroquinol and cytochrome c, 10 µM litreol, electron flow halted between bL and bH, pH 7.4", "value": "Litreol is a noncompetitive inhibitor of complex III at the level of the cytochrome bc1"}]}]}
